Results on 20 compounds are retold here after patent publication US10435408B2, “Azepine derivatives as 5-HT7 receptor modulators” (KOREA INSTITUTE OF SCIENCE AND TECHNOLOGY, priority 2016, dated 2019).

This assay addresses Human gene recombinant 5-HT7 receptor (Homo sapiens (Human), UniProt P34969). Put plainly: Measurement of binding affinity for serotonin 5-HT7 receptor ([3H]LSD radioligand binding). Particulars: [3H]LSD 1 nM, 5-HT7 receptor membrane from CHO cells; for inhibition at 10 µM: 10 μM compound; for Ki: nonlinear regression. How it is done: Human gene recombinant 5-HT7 receptor expressed in Chinese hamster ovary (CHO) cells was used. [^3H]LSD 1 nM, the 5-HT7 receptor membrane (15 μg/well), each of the samples of Example 1-20 at various concentrations, 10 mM MgCl2, and 50 mM Tris-HCl buffer (pH 7.4) containing 0.1 mM EDTA were added to a vessel until the final volume reached 0.25 ml. The reaction mixture was incubated at 25° C. for 90 min. The incubated reaction mixture was rapidly passed through a Whatman GF/C glass fiber filter, which had been previously soaked with 0.3% polyethyleneimine, using a Brandel-Harvester to quench the reaction and washed with cold 50 mM Tris-HCl buffer. The filter was covered with MeltiLex, sealed in a sample bag, and dried in an oven. The radioactivity retained in the filter was counted using MicroBeta (Wallac). Non-specific binding was determined in the presence of 0.5 μM Mianserin.

Sequence of Human gene recombinant 5-HT7 receptor (P34969 whole entry): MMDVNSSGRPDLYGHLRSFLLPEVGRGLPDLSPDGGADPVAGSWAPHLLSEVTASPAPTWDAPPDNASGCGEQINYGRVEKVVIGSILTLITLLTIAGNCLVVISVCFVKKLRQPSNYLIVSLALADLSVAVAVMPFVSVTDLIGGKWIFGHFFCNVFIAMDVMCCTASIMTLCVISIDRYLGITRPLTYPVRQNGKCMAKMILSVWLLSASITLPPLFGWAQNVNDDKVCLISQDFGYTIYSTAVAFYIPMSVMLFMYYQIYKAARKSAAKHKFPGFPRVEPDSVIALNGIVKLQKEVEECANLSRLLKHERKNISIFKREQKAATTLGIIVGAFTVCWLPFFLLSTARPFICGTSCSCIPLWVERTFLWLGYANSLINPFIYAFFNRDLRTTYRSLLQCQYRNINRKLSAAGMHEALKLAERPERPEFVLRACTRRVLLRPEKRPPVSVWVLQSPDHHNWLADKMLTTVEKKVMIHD

As a reminder, the inhibition is how much of the control response was suppressed. As a reminder, the Ki is a dissociation constant, usually derived from enzyme kinetics or from competition with a known ligand. With `Cc1ccc(-c2noc3c2CCNCC3)cc1` [Example 19, 3-(p-tolyl)-5,6,7,8-tetrahydro-4H-isoxazolo[4,5-d]azepine], the inhibition at 10 µM was 96.3% and the inhibition constant (Ki) stood at 16 nM.

`Cc1ccccc1-c1noc2c1CCNCC2` [Example 17, 3-(o-tolyl)-5,6,7,8-tetrahydro-4H-isoxazolo[4,5-d]azepine]: the inhibition at 10 µM is 41.8%.

For the compound `c1ccc(-c2n[nH]c3c2CCNCC3)cc1` [Example 1, 3-phenyl-1,4,5,6,7,8-hexahydropyrazolo[3,4-d]azepine], the inhibition at 10 µM was 84.2% and the Ki came out at 322 nM. On the same counts, the results for `Clc1ccccc1-c1noc2c1CCNCC2` [Example 14, 3-(2-chlorophenyl)-5,6,7,8-tetrahydro-4H-isoxazolo[4,5-d]azepine] are 84.5% and 425 nM. For `Fc1cccc(-c2n[nH]c3c2CCNCC3)c1` [Example 3, 3-(3-fluorophenyl)-1,4,5,6,7,8-hexahydropyrazolo[3,4-d]azepine] the same measures were 72.9% and 1240 nM.

For `Clc1ccc(-c2noc3c2CCNCC3)cc1` [Example 16, 3-(4-chlorophenyl)-5,6,7,8-tetrahydro-4H-isoxazolo[4,5-d]azepine], the inhibition at 10 µM was 93.8% and the Ki was 70 nM. On the same counts, the results for `Clc1ccc(-c2n[nH]c3c2CCNCC3)cc1` [Example 6, 3-(4-chlorophenyl)-1,4,5,6,7,8-hexahydropyrazolo[3,4-d]azepine] are 96.4% and 30 nM.

For `Fc1ccc(-c2noc3c2CCNCC3)cc1` [Example 13, 3-(4-fluorophenyl)-5,6,7,8-tetrahydro-4H-isoxazolo[4,5-d]azepine], the inhibition at 10 µM worked out at 94.6% and the Ki amounted to 53 nM. `Cc1cccc(-c2n[nH]c3c2CCNCC3)c1` [Example 8, 3-(m-tolyl)-1,4,5,6,7,8-hexahydropyrazolo[3,4-d]azepine]: the inhibition at 10 µM is 63% and the Ki worked out at 1440 nM. Turning to `Cc1ccc(-c2n[nH]c3c2CCNCC3)cc1` [Example 9, 3-(p-tolyl)-1,4,5,6,7,8-hexahydropyrazolo[3,4-d]azepine], the inhibition at 10 µM is 94.2% and the Ki came to 47 nM.

`Fc1cccc(-c2noc3c2CCNCC3)c1` [Example 12, 3-(3-fluorophenyl)-5,6,7,8-tetrahydro-4H-isoxazolo[4,5-d]azepine]: the inhibition at 10 µM turned out to be 57.5% and the inhibitory constant (Ki) stood at 1410 nM. For `Cc1ccccc1-c1n[nH]c2c1CCNCC2` [Example 7, 3-(o-tolyl)-1,4,5,6,7,8-hexahydropyrazolo[3,4-d]azepine] the same measures were 68.5% and 881 nM. `Clc1cccc(-c2n[nH]c3c2CCNCC3)c1` [Example 5, 3-(3-chlorophenyl)-1,4,5,6,7,8-hexahydropyrazolo[3,4-d]azepine]: the inhibition at 10 µM amounted to 79.2% and the Ki worked out at 883 nM. On the same counts, the results for `Fc1ccccc1-c1n[nH]c2c1CCNCC2` [Example 2, 3-(2-fluorophenyl)-1,4,5,6,7,8-hexahydropyrazolo[3,4-d]azepine] are 78.9% and 714 nM. For `Clc1ccccc1-c1n[nH]c2c1CCNCC2` [Example 4, 3-(2-chlorophenyl)-1,4,5,6,7,8-hexahydropyrazolo[3,4-d]azepine] the same measures were 88.7% and 386 nM. On to `COc1ccccc1-c1noc2c1CCNCC2` [Example 20, 3-(2-methoxyphenyl)-5,6,7,8-tetrahydro-4H-isoxazolo[4,5-d]azepine], for which the inhibition at 10 µM turned out to be 87.9% and the inhibitory constant (Ki) is 303 nM.

On to `Fc1ccccc1-c1noc2c1CCNCC2` [Example 11, 3-(2-fluorophenyl)-5,6,7,8-tetrahydro-4H-isoxazolo[4,5-d]azepine], for which the inhibition at 10 µM amounted to 77.9% and the Ki turned out to be 366 nM. On the same counts, the results for `Cc1cccc(-c2noc3c2CCNCC3)c1` [Example 18, 3-(m-tolyl)-5,6,7,8-tetrahydro-4H-isoxazolo[4,5-d]azepine] are 76.3% and 506 nM.

With `c1ccc(-c2noc3c2CCNCC3)cc1` [Example 10, 3-phenyl-5,6,7,8-tetrahydro-4H-isoxazolo[4,5-d]azepine], the inhibition at 10 µM came out at 84.3% and the inhibition constant (Ki) turned out to be 319 nM. For `Clc1cccc(-c2noc3c2CCNCC3)c1` [Example 15, 3-(3-chlorophenyl)-5,6,7,8-tetrahydro-4H-isoxazolo[4,5-d]azepine] the same measures were 78.7% and 369 nM.
